Read-outs that look alike come from different tables or passages of the source. Marks after values point to notes of the source that are not given here.

Series [1] concerns reconstructed human corneal epithelium model (SkinEthic™ HCE). From the text: The reconstructed human corneal epithelium model, (SkinEthic™ HCE) was purchased from Episkin in Lyon. The model consists of immortalized human corneal epithelial cells grown in a defined medium at the air-liquid interface. The tissue structure obtained is a multi-layer epithelium similar to the natural tissue structure of the human cornea, comprising 5-7 layers with a surface area of 0.5 cm^2.
Polyhedral cells and wing cells are also present. The tissue also comprises specific ultrastructures such as intermediate filaments, mature hemidesmosomes and desmosomes. […] The tissues are shipped on a semi-solid layer of agarose culture medium. Upon receipt, the tissues are transferred to maintenance medium (1 ml/well) in 6-well plates and incubated in a climatic chamber at 37° C., 5% CO2. The tissues are used 24 hours later.
Liquid products are tested for solubility in phosphate-buffered saline (PBS) or olive oil. In summary, 100 μl of the test product is mixed with 200 μl of PBS or olive oil.
The sample is mixed on a vortex mixer. Turbidity and possible phase separation are assessed by eye. The products are tested pure or diluted to 30%. Products that are not soluble in PBS or olive oil cannot be tested at 30%.
The procedure for applying liquid products to the tissues was optimized as follows: the chemicals are tested at two concentrations, 100% and 30%. In summary, the tissue surface is moistened by adding 20 μl of PBS at 37° C. and incubation for 10 min at 37° C./5% CO2. The corneal epithelia are then treated topically with 50±2 μL of the test product (corresponding to 100 μL/cm2) and incubated for 10 min at room temperature. The tissues are then washed with sterile PBS (2×25 ml) at 37° C. PBS is applied to the edge of the insert (not directly on the tissue) to create a gentle vortex that removes the chemical. The tissues on their inserts are then “embedded” in 5 ml of maintenance medium at room temperature for 30 min in order to remove as much as possible of the product remaining on the tissue surface. The medium is then removed by gently tapping the insert on absorbent paper, and 50 μl of maintenance medium at 37° C. is added. The inserts are then incubated for 6 h at 37° C./5% CO2.
In summary, corneal tissues are recovered with forceps and placed in tubes for rapid freezing in liquid nitrogen. The RNA is then extracted by the QIAzol technique (Qiagen, Courtaboeuf, France) with an “RNeasy Mini Kit” according to the manufacturer's instructions. In summary, the tissues are placed in 1 ml of QIAzol and homogenized using the TissueLyser II (Qiagen, Courtaboeuf, France) with 2 steel beads. After centrifugation, the supernatant is collected and 0.2 ml of bromochloro propane (Sigma, France) is added, then the whole is vigorously mixed. The homogenate is centrifuged at 12,000 g for 15 min at 4° C. The upper phase (aqueous phase) is added to 600 μl of 70% ethanol and immediately mixed by pipetting. The mixture is transferred to an RNeasy spin column placed on a 2 ml collection tube and the RNA is collected according to the manufacturer's instructions (Qiagen, Courtaboeuf, France).
In summary, the transcription of total RNA is performed with 1 μg of total RNA in a final volume of 20 μl using “Random Primers” (Invitrogen, France) and “SuperScript III Reverse Transcriptase” (Invitrogen, France) according to the manufacturer's instructions. Quantitative RT-PCR uses a PCR reagent mix: SYBR Green Real-Time PCR Master Mix (ROCHE, France) with 0.4 μM of each nucleotide primer in a final volume of 25 μl. The reaction is performed in an LC480 System (ROCHE, France). The amplification program comprises a cycle at 95° C. for 1 min, followed by 40 cycles with denaturation at 95° C. for 15 s, a hybridization and amplification phase at 60° C. for 15 s, followed by a final elongation phase at 72° C. for 40 s.

The test system of series [2] is eye. The conditions noted are these: cited from earlier work; for GHS Class: Table 6, list of solid chemicals studied; for eye irritation category as stated in text and figure legends: control chemicals and chemicals of FIG. 1 and FIG. 2; for UN GHS: Table 1, list of liquid products studied.
[3] abbreviates: liquid products, category from LII at 100% and 30%.
The mark [4] stands for this setting: Table 3, results obtained by the Draize test, liquid products.

Consider “1-Ethyl-3-methylimidazolium ethylsulfate”, for which the EIT prediction result in series [1] (setting [3]) is on record as “No Cat*”. Besides, the UN-GHS result in series [2] (setting [4]) is listed as “No Cat”.
Take `Oc1cccc2c(O)cccc12` [1,5-Naphthalenediol]: in series [2] (Draize test classification), the UN-GHS entry is on record as “Cat 2A”. Further, the “GHS Class” value in series [2] is “Cat 2A”. For the same compound, in series [2] (listed as naphthalene dione), the “eye irritation category as stated in text and figure legends” value (“eye irritation category as stated” below) is “Category 2”.
`C=CCCCCCCC=C` [1,9-Decadiene]: the EIT prediction result in series [1] is given as “No Cat”. For the same compound, the UN-GHS result in series [2] (setting [4]) is on record as “No Cat”.
For the compound `OCCCCCCCCCl` [1-Chloroctan-8-ol], the EIT prediction result in series [1] (setting [3]) is recorded as “Cat 1”. Besides, in series [2], the “UN GHS” value is listed as “Cat 1”. The UN-GHS entry in series [2] (setting [4]) is “Cat 1”.
`O=C(O)Cc1cccc2ccccc12` [1-Naphthalene acetic acid]: the UN-GHS result in series [2] (Draize test classification) is recorded as “Cat 1”. Also, the “GHS Class” value in series [2] is listed as “Cat 1”.
For the compound `CC(C)(C)CC(C)(C)c1cc(Cc2cc(C(C)(C)CC(C)(C)C)cc(-n3nc4ccccc4n3)c2O)c(O)c(-n2nc3ccccc3n2)c1` [2,2′-Methylene-bis-(6-(2H-benzotriazol-2-yl)-4-(1,1,3,3-tetramethylbutyl)phenol)], in series [2], the “GHS Class” value is reported as “No cat”; the “eye irritation category as stated” value is “No category”.
As to `CC(O)CC(C)O` (stereo not drawn) [2,4-Pentanediol], the EIT prediction entry in series [1] is reported as “No Cat”. In series [2] (setting [4]), the UN-GHS entry is “No Cat”. Further, in series [2], the “eye irritation category as stated” value is listed as “No category”.
For `O=C(Cl)c1c(Cl)cccc1Cl` [2,6-Dichlorobenzoyl chloride], the EIT prediction result in series [1] (human, 10 min) is on record as “Cat 2”. For the same compound, the UN-GHS result in series [2] (setting [4]) was “Cat 2A”.
As for `C=C(C)C(=O)OCCOCC` [2-Ethoxyethyl methacrylate], the EIT prediction result in series [1] is recorded as “No Cat”. In addition, in series [2] (setting [4]), the UN-GHS result is “No Cat”.
Take `CCCC(C)CO` (stereo not drawn) [2-Methyl-1-pentanol]: the EIT prediction entry in series [1] (human, 10 min) is “Cat 2”. The UN-GHS entry in series [2] (setting [4]) is “Cat 2B”. Moreover, in series [2], the “eye irritation category as stated” value was “Category 2”.
On to `N#CCCCl` [3-Chloropropionitrile], for which the EIT prediction entry in series [1] (setting [3]) is on record as “Cat 2”. Further, the UN-GHS result in series [2] (setting [4]) was “Cat 2B”.
`CC(C)=O` [Acetone 100%, Acetone]: the EIT prediction result in series [1] (setting [3]) is on record as “Cat 2”. Further, the UN-GHS result in series [2] (setting [4]) was “Cat 2A”. Also, the “eye irritation category as stated” value in series [2] is on record as “category 2”.
In the case of `C=CCO` [Allyl alcohol], the EIT prediction result in series [1] (setting [3]) is “Cat 2”. Besides, the UN-GHS result in series [2] (setting [4]) is recorded as “Cat 2A”.
For `CC(C)(C)CC(C)(C)c1ccc(OCCOCC[N+](C)(C)Cc2ccccc2)cc1` [Benzethonium chloride 10%, Benzethonium chloride], in series [1] (setting [3]), the EIT prediction entry is “Cat 1”.
As to `N=C(NCCCCCCNC(=N)NC(=N)Nc1ccc(Cl)cc1)NC(=N)Nc1ccc(Cl)cc1.O=C(O)[C@H](O)[C@@H](O)[C@H](O)[C@H](O)CO.O=C(O)[C@H](O)[C@@H](O)[C@H](O)[C@H](O)CO` [Chlorhexidine gluconate (20%), Chlorhexidine gluconate], the EIT prediction result in series [1] (setting [3]) is “Cat 2”. In series [2] (setting [4]), the UN-GHS result was “Cat 2A”.
Regarding `[H]/N=C(\N/C(=N/[H])NCCCCCCNC(=N)NC(=N)Nc1ccc(Cl)cc1)Nc1ccc(Cl)cc1` [Chlorhexidine], the EIT prediction result in series [1] (human, 10 min) is given as “Cat 1”. Also, the “UN GHS” value in series [2] is “Cat 1”. Also, the UN-GHS entry in series [2] (setting [4]) is “Cat 1”.
With `CCN(CC)C(=O)c1cccc(C)c1` [Diethyl toluamide], the EIT prediction entry in series [1] (human, 10 min) is on record as “Cat 2”. Besides, the UN-GHS entry in series [2] (setting [4]) is reported as “Cat 2B”.
`CCN(CC)CCC#N` [Diethylaminopropionitrile]: the EIT prediction result in series [1] (setting [3]) is given as “Cat 1”. Besides, the “UN GHS” value in series [2] is recorded as “Cat 1”. In addition, the UN-GHS result in series [2] (setting [4]) is “Cat 1”.
For the compound `CCCSSCCC` [Dipropyl disulfide], the EIT prediction result in series [1] is “No Cat”. Besides, in series [2] (setting [4]), the UN-GHS result was “No Cat”.
Regarding `CCOC(=O)C(C)C(C)=O` (stereo not drawn) [Ethyl-2-methylacetoacetate], in series [1] (human, 10 min), the EIT prediction entry is given as “Cat 2*”. Besides, the UN-GHS result in series [2] (setting [4]) is given as “Cat 2B”.
As for `O=C1CCCO1` [Gamma-butyrolactone], the EIT prediction entry in series [1] (setting [3]) is “Cat 2”. In addition, the UN-GHS result in series [2] (setting [4]) was “Cat 2A”.
Take `OCC(O)CO` [Glycerol]: the EIT prediction entry in series [1] is recorded as “No Cat”. Besides, the “eye irritation category as stated” value in series [2] is “No category”.
In the case of `O=C(O)CO` [Glycolic acid (10%), Glycolic acid], the UN-GHS result in series [2] (setting [4]) is “Cat 2B”.
In the case of `CCCCCCCCCCCCCCCC[N+](C)(C)C.[Br-]` [Hexadecyltrimethylammonium bromide 6%, Hexadecyltrimethylammonium bromide], the EIT prediction entry in series [1] (human, 10 min) is listed as “Cat 1”. In series [2], the “UN GHS” value is reported as “Cat 1”. In addition, the UN-GHS result in series [2] (setting [4]) was “Cat 1”.
For the compound `CC(O)C(=O)O` (stereo not drawn) [Lactic acid], the EIT prediction entry in series [1] (human, 10 min) is reported as “Cat 1”. In series [2], the “UN GHS” value is on record as “Cat 1”; the “eye irritation category as stated” value is listed as “category 1”. For the same compound, the UN-GHS result in series [2] (setting [4]) is “Cat 1”.
Turning to `CCC(C)=O` [Methyl ethyl ketone], the EIT prediction entry in series [1] (setting [3]) was “Cat 2”. In addition, in series [2], the “eye irritation category as stated” value was “category 2”.
In the case of `COC(=O)CS` [Methyl thioglycolate], in series [1] (human, 10 min), the EIT prediction entry is on record as “Cat 1”. Further, in series [2], the “UN GHS” value was “Cat 1”; the “eye irritation category as stated” value is given as “category 1”. In addition, the UN-GHS entry in series [2] (setting [4]) was “Cat 1”.
Take `CCCCCCCC[Si](OC)(OC)OC` [Octyltrimethoxysilane (SILAN 108), Octyltrimethoxysilane]: the EIT prediction result in series [1] is “No Cat*”. Moreover, the UN-GHS result in series [2] (setting [4]) was “No Cat”.
Take `CCCOCC(C)O` (stereo not drawn) [Propasol Solvent P]: the EIT prediction result in series [1] (setting [3]) is recorded as “Cat 1”. Also, the UN-GHS result in series [2] (setting [4]) was “Cat 2A”.
In the case of `[Na+].[OH-]` [Sodium hydroxide 0.3%, Sodium hydroxide], in series [1] (setting [3]), the EIT prediction entry is recorded as “Cat 2”. The UN-GHS result in series [2] (setting [4]) is on record as “Cat 2A”.
Turning to `CCCCCCCCCCCCOS(=O)(=O)[O-].[Na+]` [Sodium lauryl sulfate 3%, Sodium lauryl sulfate], in series [1] (setting [3]), the EIT prediction entry is “No Cat”.
`C=CC(=O)OCCOCCOCCOCCOC(=O)C=C` [Tetraethylene glycol diacrylate]: the EIT prediction entry in series [1] (human, 10 min) was “Cat 2”. In addition, the “UN GHS” value in series [2] was “Cat 1”. Besides, the UN-GHS entry in series [2] (setting [4]) is given as “Cat 1”.
`CO[Si](CCCNCCN)(OC)OC` [[3-(2-Aminoethylamino)propyl]trimethoxysilane]: in series [1] (human, 10 min), the EIT prediction result is “Cat 1”. In addition, the “UN GHS” value in series [2] is listed as “Cat 1”. In series [2] (setting [4]), the UN-GHS entry was “cat 1”.
Regarding `CCCCCCC(C=O)=Cc1ccccc1` [alpha hexyl cinnamaldehyde], the “eye irritation category as stated” value in series [2] is “category 2”.
As for `CC(C)C=O` [iso-Butanal], in series [1] (setting [3]), the EIT prediction entry is “Cat 2”. The UN-GHS entry in series [2] (setting [4]) is given as “Cat 2B”.
For the compound `CCCCCCBr` [n-Hexyl bromide], the EIT prediction result in series [1] (setting [3]) is recorded as “No Cat*”. In addition, in series [2] (setting [4]), the UN-GHS result is “No Cat”.
Consider `CCCCCCCCCCCCOS(=O)(=O)[O-].[Na+]` [sodium lauryl sulfate (15%), sodium lauryl sulfate], for which the “eye irritation category as stated” value in series [2] is listed as “category 1”.
Consider “Benzalkonium chloride [Benzalkonium chloride 5%]”, for which the EIT prediction result in series [1] (setting [3]) is “Cat 1”. Also, the “UN GHS” value in series [2] is on record as “Cat 1”. In series [2] (setting [4]), the UN-GHS result was “Cat 1”.
On to “benzalkonium chloride [benzalkonium chloride (10%)]”, for which the “eye irritation category as stated” value in series [2] is listed as “category 1”.
